According to ChEMBL document CHEMBL6096689, “Structure-Guided Development of ClpP Agonists with Potent Therapeutic Activities against Staphylococcus aureus Infection” (J Med Chem, 2025):
Converted amounts (≈) assume the structure as drawn. The source made the active and inactive calls. The rule behind the calls is not given here.

What was measured:
[1] = biological target: T1, ATP-dependent Clp protease proteolytic subunit (Staphylococcus aureus (strain NCTC 8325), UniProt Q2G036); test: Agonist activity at Staphylococcus aureus ClpP extracted from Escherichia coli BL21 (DE3) cells using FITC-casein as substrate assessed as substrate hydrolysis preincubated for 60 mins followed by substrate addition and measured after 1 hrs by fluorescence based analysis
T1 sequence (Q2G036 whole entry): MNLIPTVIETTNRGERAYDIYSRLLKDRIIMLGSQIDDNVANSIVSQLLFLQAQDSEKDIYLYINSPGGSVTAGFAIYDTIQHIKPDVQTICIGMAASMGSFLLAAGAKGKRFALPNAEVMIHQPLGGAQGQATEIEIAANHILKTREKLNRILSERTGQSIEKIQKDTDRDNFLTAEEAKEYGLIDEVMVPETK

[2] = test system: Staphylococcus aureus; test: microbe, parasite or virus in culture; format: functional; conditions: NRS-1, time 18 hrs
Description: Antibacterial activity against methicillin-resistant Staphylococcus aureus NRS-1 assessed as inhibition of visible growth of bacteria incubated for 18 hrs by absorbance based analysis

[3] = test system: Staphylococcus aureus; test: microbe, parasite or virus in culture; format: functional; conditions: NRS-70, time 18 hrs
Description: Antibacterial activity against methicillin-resistant Staphylococcus aureus NRS-70 assessed as inhibition of visible growth of bacteria incubated for 18 hrs by absorbance based analysis

[4] = Agonist activity at Lactobacillus acidophilus ClpP using alpha-casein as substrate assessed as substrate hydrolysis preincubated for 15 mins followed by substrate addition and measured after 2 hrs by SDS-PAGE analysis
[5] = Therapeutic index, ratio of IC50 for HK-2 cells to MIC for Staphylococcus aureus Newman; format: toxicity, cell-based; conditions: human, read-out: TI
[6] = test system: Staphylococcus aureus; test: microbe, parasite or virus in culture; format: functional; conditions: NRS-108, time 18 hrs
Description: Antibacterial activity against methicillin-resistant Staphylococcus aureus NRS-108 assessed as inhibition of visible growth of bacteria incubated for 18 hrs by absorbance based analysis

[7] = test system: Staphylococcus aureus; test: microbe, parasite or virus in culture; format: functional; conditions: time 18 hrs
Description: Antibacterial activity against multidrug-resistant Staphylococcus aureus clinical isolate XJ049 assessed as inhibition of visible growth of bacteria incubated for 18 hrs by absorbance based analysis

[8] = biological target: ATP-dependent Clp protease proteolytic subunit (Escherichia coli (strain K12), UniProt P0A6G7); test: Agonist activity at Escherichia coli ClpP using alpha-casein as substrate assessed as substrate hydrolysis preincubated for 15 mins followed by substrate addition and measured after 2 hrs by SDS-PAGE analysis
[9] = test system: Staphylococcus aureus; test: microbe, parasite or virus in culture; format: functional; conditions: time 18 hrs; remark: listed apart in the source
Description: Antibacterial activity against multidrug-resistant Staphylococcus aureus clinical isolate XJ051 assessed as inhibition of visible growth of bacteria incubated for 18 hrs by absorbance based analysis

[10] = biological target: T2, ATP-dependent Clp protease proteolytic subunit, mitochondrial (Homo sapiens, UniProt Q16740); test: Induction of thermal stabilization of human ClpP extracted from Escherichia coli Rosetta (DE3) cells assessed as change in melting temperature at 10 uM incubated for 10 mins by DSF analysis
[11] = test system: Staphylococcus aureus; test: Antibacterial activity against Staphylococcus aureus USA300 infected in Zebrafish infection model assessed as increase in zebrafish survival at 5 to 25 mg/kg pre-infected for 1 hrs followed by compound addition and measured after 5 days; format: functional, organism-based; conditions: dose 5-25 mg/kg, time 5.0 day
[12] = test system: Staphylococcus aureus; test: microbe, parasite or virus in culture; format: functional; conditions: NRS-271, time 18 hrs
Description: Antibacterial activity against methicillin-resistant Staphylococcus aureus NRS-271 assessed as inhibition of visible growth of bacteria incubated for 18 hrs by absorbance based analysis

[13] = test system: Staphylococcus aureus; test: microbe, parasite or virus in culture; format: functional; conditions: time 18 hrs; remark: listed apart in the source
Description: Antibacterial activity against multidrug-resistant Staphylococcus aureus clinical isolate XJ052 assessed as inhibition of visible growth of bacteria incubated for 18 hrs by absorbance based analysis

[14] = biological target: T1, ATP-dependent Clp protease proteolytic subunit; test: Agonist activity at Staphylococcus aureus ClpP extracted from Escherichia coli BL21 (DE3) cells using alpha-casein as substrate assessed as substrate hydrolysis preincubated for 15 mins followed by substrate addition and measured after 2 hrs by SDS-PAGE analysis
[15] = Therapeutic index, ratio of IC50 for HEK293T/17 cells to MIC for Staphylococcus aureus Newman; format: toxicity, cell-based; conditions: human, read-out: TI
[16] = test system: Staphylococcus aureus; test: microbe, parasite or virus in culture; format: functional; conditions: time 18 hrs; remark: listed apart in the source
Description: Antibacterial activity against multidrug-resistant Staphylococcus aureus clinical isolate XJ025 assessed as inhibition of visible growth of bacteria incubated for 18 hrs by absorbance based analysis

[17] = test system: Staphylococcus aureus; test: microbe, parasite or virus in culture; format: functional; conditions: Newman, time 18 hrs
Description: Antibacterial activity against Staphylococcus aureus Newman assessed as inhibition of visible growth of bacteria incubated for 18 hrs by absorbance based analysis

[18] = test system: Staphylococcus aureus; test: microbe, parasite or virus in culture; format: functional; conditions: time 18 hrs; remark: listed apart in the source
Description: Antibacterial activity against multidrug-resistant Staphylococcus aureus clinical isolate XJ009 assessed as inhibition of visible growth of bacteria incubated for 18 hrs by absorbance based analysis

[19] = Therapeutic index, ratio of IC50 for human ARH-77 cells to MIC for Staphylococcus aureus Newman; format: toxicity, cell-based; conditions: read-out: TI
[20] = test system: Staphylococcus aureus; test: microbe, parasite or virus in culture; format: functional; conditions: USA300, time 18 hrs
Description: Antibacterial activity against methicillin-resistant Staphylococcus aureus USA300 assessed as inhibition of visible growth of bacteria incubated for 18 hrs by absorbance based analysis

[21] = biological target: T3, ATP-dependent Clp protease proteolytic subunit (Staphylococcus aureus (strain NCTC 8325)) (UniProt Q2G036); test: Induction of thermal stabilization of Staphylococcus aureus ClpP extracted from Escherichia coli BL21 (DE3) cells assessed as change in melting temperature at 10 uM incubated for 10 mins by DSF analysis
T3 sequence (whole entry): T1 sequence (Q2G036 whole entry)

[22] = biological target: T2, ATP-dependent Clp protease proteolytic subunit, mitochondrial; test: Agonist activity at human ClpP extracted from Escherichia coli Rosetta (DE3) cells using alpha-casein as substrate assessed as substrate hydrolysis preincubated for 15 mins followed by substrate addition and measured after 2 hrs by SDS-PAGE analysis
[23] = test system: Staphylococcus aureus; test: Antibacterial activity against oxacillin-resistant Staphylococcus aureus clinical isolate XJ049 infected in female ICR mouse peritonitis model assessed as mouse survival at 50 mg/kg, ip pre-infected for 1 hrs followed by compound addition and measured after 5 days relative to control; format: functional; conditions: 120 h, time 5 day
[24] = Cytotoxicity against HEK293T/17 cells by MTT assay; format: toxicity, cell-based; conditions: human
[25] = Therapeutic index, ratio of IC50 for HEK293T/17 cells to MIC for methicillin resistant Staphylococcus aureus NRS 119; format: toxicity, cell-based; conditions: human, read-out: TI
[26] = test system: Staphylococcus aureus; test: Antibacterial activity against methicillin resistant Staphylococcus aureus NRS 119 by CLSI protocol based broth microdilution method; format: functional
[27] = Octanol/water partition coefficient, log P of the compound at pH 7.4 incubated for 24 hrs by LC-MS analysis; format: physicochemical

T2 sequence (Q16740 whole entry): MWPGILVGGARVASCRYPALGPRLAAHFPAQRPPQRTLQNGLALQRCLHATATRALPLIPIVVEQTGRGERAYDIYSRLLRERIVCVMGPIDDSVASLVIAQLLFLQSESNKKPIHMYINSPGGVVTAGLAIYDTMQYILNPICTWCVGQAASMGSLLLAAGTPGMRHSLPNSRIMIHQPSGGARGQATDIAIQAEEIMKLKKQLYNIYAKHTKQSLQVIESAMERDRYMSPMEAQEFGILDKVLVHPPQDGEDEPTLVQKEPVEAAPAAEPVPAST
Sequence of ATP-dependent Clp protease proteolytic subunit (Escherichia coli (strain K12), UniProt P0A6G7) (P0A6G7 whole entry): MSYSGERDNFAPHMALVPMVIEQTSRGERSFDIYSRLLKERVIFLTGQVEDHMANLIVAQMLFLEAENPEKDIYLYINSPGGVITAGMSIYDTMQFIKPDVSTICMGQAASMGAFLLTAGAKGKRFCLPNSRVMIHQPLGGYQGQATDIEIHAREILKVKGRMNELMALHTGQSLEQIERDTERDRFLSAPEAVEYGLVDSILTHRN

Structure (SMILES) | MIC [2] [µg/mL] | MIC [3] [µg/mL] | MIC [6] [µg/mL] | MIC [7] [µg/mL] | MIC [9] [µg/mL] | MIC [12] [µg/mL] | MIC [13] [µg/mL] | EC50 [14] [nM] | MIC [16] [µg/mL] | MIC [17] [µg/mL] | MIC [18] [µg/mL] | MIC [20] [µg/mL] | other results
CC[C@H](C)[C@H]1C(=O)N([C@H](C)c2cccc3ccccc23)C[C@@H]2N(C(=O)NCCCC(F)(F)F)CCC(=O)N12 | 2 (≈ 3.76 µM) | 1 (≈ 1.88 µM) | 1 (≈ 1.88 µM) | 2 (≈ 3.76 µM) | 1 (≈ 1.88 µM) | 1 (≈ 1.88 µM) | 2 (≈ 3.76 µM) | 1200 | 2 (≈ 3.76 µM) | 2 (≈ 3.76 µM) | 2 (≈ 3.76 µM) | 1 (≈ 1.88 µM) | EC50 [1]: 720 nM; EC50 [4]: > 100000 nM; selectivity ratio [5]: 29; EC50 [8]: > 100 µM; ΔTm [10]: 3 °C; Activity [11]: Active; selectivity ratio [15]: 25; selectivity ratio [19]: 27; ΔTm [21]: 13 °C; EC50 [22]: 31.4 µM
CN[C@@H]1[C@@H](O)[C@@H](O[C@@H]2[C@@H](O)[C@H](O[C@H]3O[C@H](CN)CC[C@H]3N)[C@@H](N)C[C@H]2N)OC[C@]1(C)O [GENTAMICIN C1A] | > 128 | 0.5 (≈ 1.11 µM) | 0.25 (≈ 0.556 µM) | 128 (≈ 285 µM) | > 128 | 0.5 (≈ 1.11 µM) | > 128 | – | 128 (≈ 285 µM) | 0.5 (≈ 1.11 µM) | 64 (≈ 142 µM) | 1 (≈ 2.22 µM) | –
CCn1cc(C(=O)O)c(=O)c2cc(F)c(N3CCNCC3)cc21 [NORFLOXACIN] | 64 (≈ 200 µM) | 1 (≈ 3.13 µM) | 32 (≈ 100 µM) | > 128 | > 128 | > 128 | > 128 | – | > 128 | 0.25 (≈ 0.783 µM) | > 128 | 16 (≈ 50.1 µM) | –
Cc1onc(-c2ccccc2)c1C(=O)N[C@@H]1C(=O)N2[C@@H]1SC(C)(C)[C@@H]2C(=O)O [OXACILLIN] | 64 (≈ 159 µM) | 0.25 (≈ 0.623 µM) | 0.25 (≈ 0.623 µM) | > 128 | > 128 | 32 (≈ 79.7 µM) | > 128 | – | 32 (≈ 79.7 µM) | 0.13 (≈ 0.324 µM) | > 128 | 0.25 (≈ 0.623 µM) | survival at 50 mg/kg [23]: 56%
CCC[C@@H]1C[C@@H](C(=O)N[C@@H]([C@H]2O[C@H](SC)[C@H](O)[C@@H](O)[C@H]2O)[C@H](C)Cl)N(C)C1 [CLINDAMYCIN] | 64 (≈ 151 µM) | 128 (≈ 301 µM) | 128 (≈ 301 µM) | > 128 | 0.016 (≈ 0.0376 µM) | 0.016 (≈ 0.0376 µM) | > 128 | – | 0.016 (≈ 0.0376 µM) | 0.016 (≈ 0.0376 µM) | 128 (≈ 301 µM) | 0.008 (≈ 0.0188 µM) | –
O=C1C2=C(CCN(Cc3ccccc3)C2)N2CCN=C2N1Cc1ccc(C(F)(F)F)cc1 | 1 (≈ 2.27 µM) | 0.5 (≈ 1.14 µM) | 0.5 (≈ 1.14 µM) | 0.5 (≈ 1.14 µM) | 0.5 (≈ 1.14 µM) | 0.25 (≈ 0.568 µM) | 1 (≈ 2.27 µM) | 1200 | 0.5 (≈ 1.14 µM) | 0.002 (≈ 0.00454 µM) | 0.5 (≈ 1.14 µM) | 0.5 (≈ 1.14 µM) | EC50 [1]: 720 nM; EC50 [4]: 1140 nM; selectivity ratio [5]: 0.06; EC50 [8]: 3.97 µM; ΔTm [10]: 23.5 °C; IC50 [24]: 0.002 µg/mL (≈ 0.00454 µM); selectivity ratio [15]: 0.04; selectivity ratio [19]: 0.1; ΔTm [21]: 15.9 °C; EC50 [22]: 1.9 µM
C[C@@H]1C[C@H]2C(=O)OC[C@H](NC(=O)[C@H](Cc3cc(F)cc(F)c3)NC(=O)CCC3CCCCC3)C(=O)N3CCC[C@H]3C(=O)N3CCCC[C@H]3C(=O)N[C@@H](C)C(=O)N2C1 | – | – | – | – | – | – | – | – | – | – | – | – | selectivity ratio [25]: 9.3; IC50 [24]: 3.7 µg/mL (≈ 4.63 µM); MIC [26]: 0.4 µg/mL (≈ 0.501 µM)
O=C1[C@H](Cc2cnc[nH]2)N2C(=O)CCN(C(=O)NCc3ccccc3)[C@H]2CN1Cc1cccc2ccccc12 | – | – | – | – | – | – | – | 500 | – | > 128 | – | – | logD at 24 h [27]: 3.09
